US20250302798A1, “STING INHIBITORS AND USE THEREOF” (CARMEL HAIFA UNIVERSITY ECONOMIC CORPORATION LTD., priority 2022, published 2025)
Entries after “also recorded” stand apart in the source; their conditions may differ.

Tested on: liver fibrosis
Test: CCl4 mouse liver fibrosis model, liver Western blot
Type: in vivo, C57BL/6 mice
Conditions: CCl4 mice, 50 μM compound
Procedure: FIGS. 7A-7E include an image and graphs showing that compound 2.1 facilitates anti-fibrotic responses during the resolution of liver fibrosis. Mice were injected I.P. with the fibrosis-inducing agent CCl4 twice a week. After 28 days the mice were injected with vehicle (DMSO 0.4%), or 50 μM compound 2.1 ([…]). After 2 additional days, livers were collected and analyzed by western blot (7A) for their expression of collagen 1 and the M2 marker arginase 1, as well as β-actin (loading control). Alternatively, livers were analyzed for their mRNA expression of the IFN-responsive genes Ifitml (7B) and Ifitm3 (7C), or the anti-fibrotic protein Rgs2 (7D). Liver interstitial fluids were evaluated for the anti-fibrotic cytokine IL-10 (7E) levels. Results are representative from 4 (A) or mean±SEM of 8 mice (7B-7E). One-way ANOVA, and Tukey HSD test ** P≤0.01, **** P≤0.0001.
FIGS. 9A-9E include an image of Western blot analysis and vertical bar graphs showing that compound 2.1 reduces production of fibrosis-related factors. (9A) Western blot analysis showing that treatment with compound 2.1 (c2.1) in a liver fibrosis model results in: reduced production of Collagen 1 (Col-1), and of Arginase 1, and increased production of IFN-β. (9B-9E) Vertical bar graphs showing densitometric analysis of (9A) for Col-1 (9B), Arginase-1 (9C), IFN-β (9D), and alpha smooth muscle actin (αSMA; 9E). (9B-9E) results are mean±SEM. One-way ANOVA, and Tukey HSD test * P≤0.05, ** P≤0.01.
Male C57BL/6 mice were randomly assigned to experimental groups at approximately eight weeks old. Mice were injected I.P. with CCl4 (1 ml/kg) three times a week for six weeks with 0.2 ml of a 10 percent CCl4 in corn oil. Forty-eight hours before sacrifice, the vehicle group was injected I.P. with CCL4, while the treatment group was injected with CCl4 and 50 μM of compound 2.1. Then the liver was collected in a RIPA buffer for Western blot analysis.
Protein extracts of liver tissue were separated by sodium dodecyl sulfate polyacrylamide gel electrophoresis (SDS-PAGE), transferred to PVDF membranes (Bio-Rad Laboratories, Inc.), blocked with 5% skimmed milk powder, and immunoblotted with antibodies targeting: IFN-β, arginase 1, collagen 1, or β-actin. Then, the membranes were washed, incubated with the appropriate horseradish peroxidase (HRP)-conjugated secondary antibody, and developed using WesternBright™ ECL (Advansta Inc). Band density was quantified with FIJI ImageJ software.

SMILES: c1ccc(CSc2nnc(CCCCCCCCc3nnc(SCc4ccccc4)o3)o2)cc1 [Compound 2.1, 2-(benzylsulfanyl)-5-{8-[5-(benzylsulfanyl)-1,3,4-oxadiazol-2-yl]octyl}-1,3,4-oxadiazole]
- Production of fibrosis-related factors: reduces
- Production of Arginase 1 in liver (Western blot): reduction; also recorded: reduced
- Production of Collagen 1 in liver (Western blot): reduction; also recorded: reduced
- Production of IFN-β in liver (Western blot): elevated production; also recorded: increased
- Anti-fibrotic responses during the resolution of liver fibrosis (livers after 2 days): facilitates
